pEC50: −log10 of the molar value.
Target: human mGluR5A (Homo sapiens (Human), UniProt P41594)
Experiment: mGluR5 FLIPR Assay
Assay type: cell-based
Conditions: positive modulator activity, HEK293 (ZF) cells with human mGluR5A and rat GLAST, Ca++ response to ~EC10 l-glutamate
Protocol: HEK293 (ZF) cells stably transfected with human mGluR5A (pIRES neo) and the rat glutamate-aspartate transporter (GLAST; pIRES puro) are grown in a monolayer culture at 37° C. in 5% CO2 and fed with Minimum Essential Medium (MEM) supplemented with 10% dialysed fetal bovine serum. […] Plates are incubated in dye at 37° C. in 5% CO2 for 60 minutes prior to delivery of test compounds in assay buffer. Test compounds are incubated with cells in the presence of dye for 10 minutes prior to being read on the FLIPR platform (Molecular Devices). A Ca^++ signal is induced in the assay plates via the delivery of an ˜EC10 concentration of the endogenous agonist 1-glutamate; images are acquired at 1 Hz for 100 seconds post-delivery of agonist stimulus. Positive modulator activity (i.e. the ability of test compounds to increase the Ca^++ response to a sub-maximal concentration of agonist) is normalized to a saturating concentration of a known mGluR5 PAM run in each assay plate. An EC50 concentration of test compounds is derived from 4-parameter logistic curve fits of transformed fluoresence data via proprietary software suite.

human mGluR5A, sequence (P41594 other isoform, or with tags, fused parts or gaps): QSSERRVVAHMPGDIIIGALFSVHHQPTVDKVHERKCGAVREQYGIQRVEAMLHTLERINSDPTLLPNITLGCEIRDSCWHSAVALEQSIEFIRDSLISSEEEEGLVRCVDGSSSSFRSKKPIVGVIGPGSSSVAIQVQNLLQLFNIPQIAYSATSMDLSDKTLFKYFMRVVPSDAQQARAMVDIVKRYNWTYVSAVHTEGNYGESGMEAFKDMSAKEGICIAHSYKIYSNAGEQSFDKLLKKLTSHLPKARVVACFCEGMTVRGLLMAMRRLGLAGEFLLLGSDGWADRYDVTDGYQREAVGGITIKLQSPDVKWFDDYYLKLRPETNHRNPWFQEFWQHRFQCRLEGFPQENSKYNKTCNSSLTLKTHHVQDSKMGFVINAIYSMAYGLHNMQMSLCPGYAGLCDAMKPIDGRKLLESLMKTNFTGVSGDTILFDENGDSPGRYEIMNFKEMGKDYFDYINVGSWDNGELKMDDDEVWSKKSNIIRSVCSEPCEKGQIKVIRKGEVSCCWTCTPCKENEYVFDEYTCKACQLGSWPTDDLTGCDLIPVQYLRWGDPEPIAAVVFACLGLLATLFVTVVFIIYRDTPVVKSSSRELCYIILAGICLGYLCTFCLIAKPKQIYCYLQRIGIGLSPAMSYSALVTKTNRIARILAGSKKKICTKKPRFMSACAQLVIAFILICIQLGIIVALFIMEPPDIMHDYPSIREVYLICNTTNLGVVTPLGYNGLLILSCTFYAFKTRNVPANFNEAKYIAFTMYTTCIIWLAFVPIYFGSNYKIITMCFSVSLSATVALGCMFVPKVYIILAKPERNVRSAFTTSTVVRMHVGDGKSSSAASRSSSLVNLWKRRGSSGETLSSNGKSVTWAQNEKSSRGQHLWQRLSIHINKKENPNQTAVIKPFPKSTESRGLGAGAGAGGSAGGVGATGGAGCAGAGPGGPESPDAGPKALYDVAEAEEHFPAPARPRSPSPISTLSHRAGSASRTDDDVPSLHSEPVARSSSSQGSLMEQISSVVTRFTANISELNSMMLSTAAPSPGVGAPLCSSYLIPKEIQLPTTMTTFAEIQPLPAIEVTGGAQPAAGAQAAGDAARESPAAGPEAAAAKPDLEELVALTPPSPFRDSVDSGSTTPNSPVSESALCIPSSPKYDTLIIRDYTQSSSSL

SMILES	pEC50
CC(O)CCC#Cc1cncc([C@H]2NC(=O)O[C@@H]2c2cccc(F)c2)c1 (single isomer, unassigned) [Example 7]	8.23
O=C1N[C@H](c2cncc(C#CC(O)C3CC3)c2)[C@@H](c2cccc(F)c2)O1 (single isomer, unassigned) [Example 57]	7.11
O=C1N[C@H](c2cncc(C#CC(O)C3CC3)c2)[C@@H](c2cccc(F)c2)O1 (single isomer, unassigned) [Example 59]	6.65
O=C1N[C@H](c2cncc(C#CC(O)CC3CC3)c2)[C@@H](c2cccc(F)c2)O1 (single isomer, unassigned) [Example 73]	7.55
O=C1N[C@H](c2cncc(C#CC(O)CC3CC3)c2)[C@@H](c2cccc(F)c2)O1 (single isomer, unassigned) [Example 74]	7.56
CC(O)CCC#Cc1cncc([C@H]2NC(=O)O[C@@H]2c2cccc(F)c2)c1 (some centres unmarked) [Example 8]	7.91
CC(O)CCC#Cc1cncc([C@H]2NC(=O)O[C@@H]2c2cccc(F)c2)c1 (some centres unmarked) [Example 10]	7.90
O=C1N[C@H](c2cncc(C#CCC3CCOCC3)c2)[C@@H](c2cccc(F)c2)O1 [Example 11]	7.87
O=C1N[C@H](c2cncc(C#CCC3CCCCC3)c2)[C@@H](c2cccc(F)c2)O1 [Example 13]	7.79
O=C1N[C@H](c2cncc(C#CC(O)C3CCC3)c2)[C@@H](c2cccc(F)c2)O1 (some centres unmarked) [Example 14]	7.78
O=C1N[C@H](c2cncc(C#CCOc3ccccc3)c2)[C@@H](c2cccc(F)c2)O1 [Example 24]	7.36
Cc1ccn(CC#Cc2cncc([C@H]3NC(=O)O[C@@H]3c3cccc(F)c3)c2)n1 [Example 26]	7.34
O=C1N[C@H](c2cncc(C#CCn3cc(Cl)cn3)c2)[C@@H](c2cccc(F)c2)O1 [Example 27]	7.32
O=C1N[C@H](c2cncc(C#CC(O)C3CCCCC3)c2)[C@@H](c2cccc(F)c2)O1 (some centres unmarked) [Example 30]	7.07
Cc1ccnn1CC#Cc1cncc([C@H]2NC(=O)O[C@@H]2c2cccc(F)c2)c1 [Example 31]	6.97
O=C1N[C@H](c2cncc(C#CCn3ccnc3)c2)[C@@H](c2cccc(F)c2)O1 [Example 33]	6.87
O=C1N[C@H](c2cncc(C#CCN3CCOCC3)c2)[C@@H](c2cccc(F)c2)O1 [Example 36]	6.54
O=C1N[C@H](c2cncc(C#CCOC3CCCCO3)c2)[C@@H](c2cccc(F)c2)O1 (some centres unmarked) [Example 38]	6.30
O=C1N[C@H](c2cncc(C#CC3(O)CCCC3)c2)[C@@H](c2cccc(F)c2)O1 [Example 39]	6.29
O=C1N[C@H](c2cncc(C#CCN3CCCCC3)c2)[C@@H](c2cccc(F)c2)O1 [Example 41]	6.14
O=C1N[C@H](c2cncc(C#CCc3ccccc3)c2)[C@@H](c2cccc(F)c2)O1 [Example 43]	< 5.79
O=C1N[C@H](c2cncc(C#CCN3CCCC3=O)c2)[C@@H](c2cccc(F)c2)O1 [Example 47]	< 5.79
O=C1N[C@H](c2cncc(C#CCn3ncc4ccccc43)c2)[C@@H](c2cccc(F)c2)O1 [Example 49]	< 5.79
O=C1N[C@H](c2cncc(C#CC(O)C3CC3)c2)[C@@H](c2cccc(F)c2)O1 (some centres unmarked) [Example 58]	6.69
O=C1N[C@H](c2cncc(C#CCn3cccn3)c2)[C@@H](c2cccc(F)c2)O1 [Example 62]	7.96
O=C1N[C@H](c2cncc(C#CCC3CCCO3)c2)[C@@H](c2cccc(F)c2)O1 (some centres unmarked) [Example 63]	7.91
O=C1N[C@H](c2cncc(C#CCC3CCOC3)c2)[C@@H](c2cccc(F)c2)O1 (some centres unmarked) [Example 64]	7.70
O=C1N[C@H](c2cncc(C#CCC3CCOC3)c2)[C@@H](c2cccc(F)c2)O1 (some centres unmarked) [Example 65]	7.83
O=C1N[C@H](c2cncc(C#CCC3CCOC3)c2)[C@@H](c2cccc(F)c2)O1 (some centres unmarked) [Example 66]	7.82
O=C1N[C@H](c2cncc(C#CCN3CC(F)(F)C3)c2)[C@@H](c2cccc(F)c2)O1 [Example 70, (4R,5R)-4-(5-(3-(3,3-Difluoroazetidin-1-yl)prop-1-yn-1-yl)pyridin-3-yl)-5-(3-fluorophenyl)oxazolidin-2-one]	7.53

The next lines start with the values.

pEC50	SMILES
7.69	CCCC(O)C#Cc1cncc([C@H]2NC(=O)O[C@@H]2c2cccc(F)c2)c1 (single isomer, unassigned) [Example 15]
7.56	CCC(O)CC#Cc1cncc([C@H]2NC(=O)O[C@@H]2c2cccc(F)c2)c1 (single isomer, unassigned) [Example 19]
7.22	CCC(O)CC#Cc1cncc([C@H]2NC(=O)O[C@@H]2c2cccc(F)c2)c1 (single isomer, unassigned) [Example 20]
7.49	CCCC(O)C#Cc1cncc([C@H]2NC(=O)O[C@@H]2c2cccc(F)c2)c1 (single isomer, unassigned) [Example 22]
8.77	O=C1N[C@H](c2cncc(C#CCC3CCC3)c2)[C@@H](c2cccc(F)c2)O1 [Example 1, (4R,5R)-4-(5-(3-Cyclobutylprop-1-yn-1-yl)pyridin-3-yl)-5-(3-fluorophenyl)oxazolidin-2-one]
8.70	CCSCC#Cc1cncc([C@H]2NC(=O)O[C@@H]2c2cccc(F)c2)c1 [Example 2]
8.66	CCCCC#Cc1cncc([C@H]2NC(=O)O[C@@H]2c2cccc(F)c2)c1 [Example 3]
8.44	O=C1N[C@H](c2cncc(C#CCC3CC3)c2)[C@@H](c2cccc(F)c2)O1 [Example 4]
8.33	CC(C)CCC#Cc1cncc([C@H]2NC(=O)O[C@@H]2c2cccc(F)c2)c1 [Example 5]
8.28	CCCC#Cc1cncc([C@H]2NC(=O)O[C@@H]2c2cccc(F)c2)c1 [Example 6]
7.94	CC(C)CC#Cc1cncc([C@H]2NC(=O)O[C@@H]2c2cccc(F)c2)c1 [Example 9]
7.81	CCCC(O)C#Cc1cncc([C@H]2NC(=O)O[C@@H]2c2cccc(F)c2)c1 (some centres unmarked) [Example 12]
< 5.49	CCC(C)(O)C#Cc1cncc([C@H]2NC(=O)O[C@@H]2c2cccc(F)c2)c1 (some centres unmarked) [Example 16]
7.63	COCCC#Cc1cncc([C@H]2NC(=O)O[C@@H]2c2cccc(F)c2)c1 [Example 17]
7.53	CCC(O)CC#Cc1cncc([C@H]2NC(=O)O[C@@H]2c2cccc(F)c2)c1 (some centres unmarked) [Example 21]
7.36	CCCC(C)C#Cc1cncc([C@H]2NC(=O)O[C@@H]2c2cccc(F)c2)c1 (some centres unmarked) [Example 23]
7.34	CC(C)CC(O)C#Cc1cncc([C@H]2NC(=O)O[C@@H]2c2cccc(F)c2)c1 (some centres unmarked) [Example 25]
7.11	CC(C)C(O)C#Cc1cncc([C@H]2NC(=O)O[C@@H]2c2cccc(F)c2)c1 (some centres unmarked) [Example 28]
7.11	O=C1N[C@H](c2cncc(C#CCC3CC3(F)F)c2)[C@@H](c2cccc(F)c2)O1 (some centres unmarked) [Example 29]
6.94	CCC(O)C#Cc1cncc([C@H]2NC(=O)O[C@@H]2c2cccc(F)c2)c1 (some centres unmarked) [Example 32]
6.61	CC(C)(C)OCC#Cc1cncc([C@H]2NC(=O)O[C@@H]2c2cccc(F)c2)c1 [Example 34]

pEC50	SMILES
6.59	N#CCCC#Cc1cncc([C@H]2NC(=O)O[C@@H]2c2cccc(F)c2)c1 [Example 35]
6.42	COCC(O)CC#Cc1cncc([C@H]2NC(=O)O[C@@H]2c2cccc(F)c2)c1 (some centres unmarked) [Example 37]
6.29	CC(C)(O)CC#Cc1cncc([C@H]2NC(=O)O[C@@H]2c2cccc(F)c2)c1 [Example 40]
< 5.79	CC(O)CC#Cc1cncc([C@H]2NC(=O)O[C@@H]2c2cccc(F)c2)c1 (some centres unmarked) [Example 42]
< 5.79	CN(C)CCC#Cc1cncc([C@H]2NC(=O)O[C@@H]2c2cccc(F)c2)c1 [Example 44]
< 5.79	CC(=O)NCC#Cc1cncc([C@H]2NC(=O)O[C@@H]2c2cccc(F)c2)c1 [Example 45]
< 5.79	O=C1N[C@H](c2cncc(C#CCC3(O)CCC3)c2)[C@@H](c2cccc(F)c2)O1 [Example 46]
< 5.79	O=C1N[C@H](c2cncc(C#CCNC(=O)C(F)(F)F)c2)[C@@H](c2cccc(F)c2)O1 [Example 48]
< 5.49	CC(C)C#Cc1cncc([C@H]2NC(=O)O[C@@H]2c2cccc(F)c2)c1 [Example 50]
8.09	CCCCCC#Cc1cncc([C@H]2NC(=O)O[C@@H]2c2cccc(F)c2)c1 [Example 51]
8.03	O=C1N[C@H](c2cncc(C#CCOCC(F)(F)F)c2)[C@@H](c2cccc(F)c2)O1 [Example 52]
7.79	CCOCC#Cc1cncc([C@H]2NC(=O)O[C@@H]2c2cccc(F)c2)c1 [Example 53]
6.97	Cc1cnn(CC#Cc2cncc([C@H]3NC(=O)O[C@@H]3c3cccc(F)c3)c2)c1 [Example 54]
7.56	CCOCCC#Cc1cncc([C@H]2NC(=O)O[C@@H]2c2cccc(F)c2)c1 [Example 55]
7.17	CCCCC(O)C#Cc1cncc([C@H]2NC(=O)O[C@@H]2c2cccc(F)c2)c1 (some centres unmarked) [Example 56]
6.34	COCC#Cc1cncc([C@H]2NC(=O)O[C@@H]2c2cccc(F)c2)c1 [Example 60]
< 5.49	CC(C)(C)C#Cc1cncc([C@H]2NC(=O)O[C@@H]2c2cccc(F)c2)c1 [Example 61]
7.05	O=C1N[C@H](c2cncc(C#CCCOCC(F)(F)F)c2)[C@@H](c2cccc(F)c2)O1 [Example 67]
6.03	O=C1N[C@H](c2cncc(C#CCC3COC3)c2)[C@@H](c2cccc(F)c2)O1 [Example 68]
< 5.79	O=C1N[C@H](c2cncc(C#CCC3CCO3)c2)[C@@H](c2cccc(F)c2)O1 (some centres unmarked) [Example 69]
